The text below walks through data of article PMC6282583 (Chemmedchem, 2018).

Molecules are shown by their SMILES.

Experiment [1] concerns the target T1, endothiapepsin (Cryphonectria parasitica, UniProt P11838).
T1 sequence (P11838 90-419): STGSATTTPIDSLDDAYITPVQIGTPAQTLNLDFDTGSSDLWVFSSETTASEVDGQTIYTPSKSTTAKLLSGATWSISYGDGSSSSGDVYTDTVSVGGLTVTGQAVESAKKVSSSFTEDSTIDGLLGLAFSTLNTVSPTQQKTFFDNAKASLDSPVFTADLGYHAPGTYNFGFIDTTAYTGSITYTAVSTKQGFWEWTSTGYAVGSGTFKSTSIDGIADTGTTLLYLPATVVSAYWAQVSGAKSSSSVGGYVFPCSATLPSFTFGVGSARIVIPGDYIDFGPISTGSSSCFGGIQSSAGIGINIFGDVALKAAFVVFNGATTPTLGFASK
Kind of experiment: fluorescence-based protease assay adapted from HIV-protease assay. The experiment is classed as biochemical.

In experiment [2] the target is T1, endothiapepsin. Described as above. The experiment is classed as biochemical. The source holds these as a separate data set.

On to `Cc1cc(C)c(CCNC(=O)[C@@H](N)Cc2c[nH]c3ccccc23)c(C)c1` [(S)-2], for which, on endothiapepsin [1], the affinity, expressed as Ki, was 6.1 ± 0.4 µM. Further, at endothiapepsin [2], the midpoint of inhibition, the IC50, lay at 12.9 ± 0.7 µM.

On to `Cc1cc(C)c(CCOC(=O)[C@@H](N)Cc2c[nH]c3ccccc23)c(C)c1` [(S)-3], for which the Ki on endothiapepsin [1] was 13.5 ± 1.9 µM. The same compound returned an IC50 at endothiapepsin [2] of 28.7 ± 4.1 µM.

In the case of `Cc1cc(C)c(Cc2csc([C@@H](N)Cc3c[nH]c4ccccc34)n2)c(C)c1` [(S)-4], the Ki on endothiapepsin [1] is 91.2 ± 5.4 µM. Moreover, the IC50 on endothiapepsin [2] was 194 ± 11.4 µM.

As a reminder, the Ki is the dissociation constant of the complex between target and ligand, obtained from inhibition or displacement. A low value points to tighter binding. The IC50 is the concentration that gives 50% inhibition. Low readings indicate inhibition by little substance, high ones a need for much substance.
